Source: US9073858B2, “Methods of targeted drug development” (priority 2010, dated 2015)
Read-outs that look alike come from different tables or passages of the source.

Tests used:
[1] = test system: A549 cells; experiment: A549 Cell Proliferation Assay (MTT); assay type: cell-based; conditions: Homo sapiens
Experimental: Cell proliferation is determined using the MTT assay. The MTT cell proliferation assay is a colorimetric assay system which measures the reduction of a tetrazolium component (MTT) into an insoluble formazan product by the mitochondria of viable cells. After incubation of the cells with the MTT reagent, DMSO is added to solubilize the colored crystals and the samples read at a wavelength of 560 nm. The amount of color produced is directly proportional to the number of viable cells. […] L11939) was prepared at 5 mg/ml in PBS. […] Plates were read on the PolarStar plate reader at 560 nm. […] IC50 values were calculated in GraphPad Prism using non-linear regression curve fitting. All statistical analyses was done either in GraphPad Prism or Microsoft Excel. […] Briefly, compounds are added to cells plated in 96-well plates. The cells are allowed to grow for 72 hours before MTT treatment. The effect of the compounds on cell proliferation is analyzed using GraphPad Prism. A549 cells are a non-small cell lung cancer cell line that have wild type EGFR and p53 but have point mutations in KRAS gene which transform it into an oncogene. […] SH30071.03, lot no. ATB31500), 1% Pen Strep (Gibco, cat no. […] On day 2, working solutions of compounds at 200× were prepared. […] Plates were incubated for 72 hours before analyzing them with MTT (as described above).

[2] = test system: H1975 cells; experiment: H1975 Cell Proliferation Assay (MTT); assay type: cell-based; conditions: Homo sapiens, read-out: IC50 Value (μM) H1975 Cells
Experimental: (§1) Cell proliferation is determined using the MTT assay. The MTT cell proliferation assay is a colorimetric assay system which measures the reduction of a tetrazolium component (MTT) into an insoluble formazan product by the mitochondria of viable cells. After incubation of the cells with the MTT reagent, DMSO is added to solubilize the colored crystals and the samples read at a wavelength of 560 nm. The amount of color produced is directly proportional to the number of viable cells.
(§2) 3-(4,5-Dimethylthiazol-2-yl)-2,5-diphenyltetrazolium Bromide (MTT) dye (Aesar, cat no. L11939) was prepared at 5 mg/ml in PBS. To each well, 20 μl of MTT solution was added to existing media and mixed thoroughly with 5 mins of gentle shaking at room temperature. Plates were incubated at 37° C., 5% CO2 for approximately 2 hrs. After 2-3 hrs incubation, media was aspirated out and plates were patted dry. […] Plates were incubated at 37° C., 5% CO2 for 10 min and mix thoroughly with 5 mins of gentle shaking at room temperature. Plates were read on the PolarStar plate reader at 560 nm. Percent (%) inhibition was calculated as 100%−(OD560 nm experimental-blank)×100%/OD560 nm control-blank. Blank=wells+serum free media+0.5% DMSO. Experimental=wells+cells+treatment+0.5% DMSO. Control=wells+cells+0.5% DMSO. IC50 values were calculated in GraphPad Prism using non-linear regression curve fitting. All statistical analyses was done either in GraphPad Prism or Microsoft Excel.
Briefly, compounds are added to cells plated in 96-well plates. The cells are allowed to grow for 72 hours before MTT treatment. The effect of the compounds on cell proliferation is analyzed using GraphPad Prism.

[3] = Stability on incubation with mouse liver microsomes (MLM); assay type: in vitro ADME; conditions: percentage left after incubation with mouse liver microsomes for 30 minutes
Experimental: (§3) Stability of hydroxyquinoline analogs were determined (see e.g., TABLE 18). MLM represents the percentage left after incubation with mouse liver microsomes for 30 minutes. HLM represents the percentage left after incubation with human liver microsomes for 30 minutes.
(§4) Stability of analogs having a benzaldehyde derived ring were determined (see e.g., TABLE 18). MLM represents the percentage left after incubation with mouse liver microsomes for 30 minutes. HLM represents the percentage left after incubation with human liver microsomes for 30 minutes.

[4] = Stability on incubation with human liver microsomes (HLM); assay type: in vitro ADME; conditions: percentage left after incubation with human liver microsomes for 30 minutes
Experimental: as §3, §4

[5] = test system: HT-29 cells; experiment: HT-29 Cell Proliferation Assay (MTT); assay type: cell-based; conditions: Homo sapiens, read-out: IC50 Value (μM) HT-29 Cells
Experimental: as §1, §2
Briefly, compounds are added to cells plated in 96-well plates. […] The effect of the compounds on cell proliferation is analyzed using GraphPad Prism.
HT-29 cells are a colon cancer cell line that is utilized to assess the ability of compounds to inhibit the proliferation of cells in tumors of the colon.
For the HT-29 cell proliferation assay, on day 1, HT-29 cells are seeded at 3,000 cells/well in 100 μl media containing 10% FBS, 1× Pen-Strep, and 1× L-Glutamine in 96 well, tissue culture-treated plates. […] Working solutions of compounds were prepared (at […] in 100% DMSO). To 200 μl media, 20 μl of a 5× compound (diluted in plain media) was added for a final DMSO concentration of 0.5%. […] On day 5, plates were analyzed for cell growth using the MTT assay.

[6] = A549, 72 h, read-out: IC50 Value (μM) A549 Cells
[7] = A549, MTT, 72 hours, read-out: IC50 Value (μM) A549 Cells

Compound	IC50 [1, 6]	IC50 ([2]; NCI-H1975, 72 h)	IC50 ([5]; HT-29, 72 h)	also measured
Oc1c(C(Nc2ccc(C(F)(F)F)cn2)c2ccc(C(F)(F)F)cc2)ccc2cccnc12 (stereo not drawn) [AD4-13028]	0.14 µM	0.26 µM		
Oc1c(C(Nc2ccc(C(F)(F)F)cn2)c2ccc(Cl)c(Cl)c2)ccc2cccnc12 (stereo not drawn) [AD4-13030]	0.17 µM	0.22 µM		
Oc1c(C(Nc2ccc(C(F)(F)F)cn2)c2ccc(C(F)(F)F)cc2F)ccc2cccnc12 (stereo not drawn) [AD4-13031]	0.12 µM	0.24 µM		MLM % Remaining@ 30 Min [3]: 87%; HLM % Remaining@ 30 Min [4]: 93%
Oc1c(C(Nc2ccc(C(F)(F)F)cn2)c2ccc(Cl)c(C(F)(F)F)c2)ccc2cccnc12 (stereo not drawn) [AD4-13032]	0.17 µM	0.21 µM		
Oc1c(C(Nc2ccc(C(F)(F)F)cn2)c2ccc(Cl)cc2Cl)ccc2cccnc12 (stereo not drawn) [AD4-13033]	0.13 µM	0.23 µM		MLM % Remaining@ 30 Min [3]: 84%; HLM % Remaining@ 30 Min [4]: 100%
Oc1c(C(Nc2cc(Cl)ccn2)c2ccc(C(F)(F)F)cc2F)ccc2cccnc12 (stereo not drawn) [AD4-13046]	0.16 µM	0.12 µM		
Oc1c(C(Nc2cc(Cl)ccn2)c2ccc(C(F)(F)F)c(F)c2)ccc2cccnc12 (stereo not drawn) [AD4-13048]	0.18 µM	0.17 µM		
Oc1c(C(Nc2ccc(Cl)cn2)c2cc(C(F)(F)F)ccc2Cl)ccc2cccnc12 (stereo not drawn) [AD4-13052]	0.13 µM	0.24 µM		
Oc1c(C(Nc2cc(Cl)ccn2)c2cc(C(F)(F)F)ccc2Cl)ccc2cccnc12 (stereo not drawn) [AD4-13060]	0.19 µM	0.58 µM		
Cc1cccc(NC(c2ccc(Cl)c(Cl)c2)c2cc(Cl)c3cccnc3c2O)n1 (stereo not drawn) [AD4-13081]				IC50 [1, 7]: 0.17 µM; IC50 ([2]; NCI-H1975, MTT, 72 hours): 0.33 µM; IC50 ([5]; HT-29, MTT, 72 hrs): 6.2 µM
Cc1cccc(NC(c2cc(Cl)ccc2Cl)c2ccc3ccc(C)nc3c2O)n1 (stereo not drawn) [AD4-13090]				IC50 [1, 7]: 0.16 µM; IC50 ([2]; NCI-H1975, MTT, 72 hours): 1.3 µM; IC50 ([5]; HT-29, MTT, 72 hrs): 3.7 µM
Cc1ccnc(NC(c2ccc3cccnc3c2O)c2c(F)c(F)c(OCC(F)(F)F)c(F)c2F)c1 (stereo not drawn) [AD4-13092]	0.16 µM	0.21 µM	3.9 µM	
Cc1cc(Cl)cnc1NC(c1ccc(Cl)c(Cl)c1)c1ccc2cccnc2c1O (stereo not drawn) [AD4-13119]	0.18 µM	0.12 µM	1.5 µM	
Cc1cc(NC(c2ccc(C(F)(F)F)cc2)c2ccc3cccnc3c2O)ncc1Cl (stereo not drawn) [AD4-13121]	0.18 µM	0.33 µM	1.8 µM	
Cc1cc(NC(c2ccc(Cl)cc2Cl)c2ccc3cccnc3c2O)ncc1Cl (stereo not drawn) [AD4-13123]	0.12 µM	0.36 µM		MLM % Remaining@ 30 Min [3]: 30%; HLM % Remaining@ 30 Min [4]: 84%
Cc1cc(NC(c2ccc(C(F)(F)F)cc2C(F)(F)F)c2ccc3cccnc3c2O)ncc1Cl (stereo not drawn) [AD4-13124]	0.1 µM	0.97 µM	1.5 µM	IC50 ([1]; A549, read-out: IC50, cell proliferation in A549 or H1975 cells): ≤ 0.1 µM
Cc1cc(Cl)cnc1NC(c1ccc2cccnc2c1O)c1c(F)cccc1Cl (stereo not drawn) [AD4-13135]	0.18 µM	0.21 µM	0.79 µM	
Oc1c(C(Nc2ncc(F)cc2F)c2c(Cl)cccc2Cl)ccc2cccnc12 (stereo not drawn) [AD4-13138]	0.17 µM	0.3 µM	1.1 µM	
Cc1cc(Cl)cnc1NC(c1ccc2cccnc2c1O)c1c(Cl)cccc1Cl (stereo not drawn) [AD4-13142]	0.14 µM	0.95 µM	3.1 µM	
Oc1c(C(Nc2ncc(Cl)cc2F)c2cccc(C(F)(F)F)c2)ccc2cccnc12 (stereo not drawn) [AD4-13145]	0.16 µM	1.7 µM	2.1 µM	
